Some test systems named below: OVCAR-5 ovarian; MALME-3M melanoma; HOP-62 NSCLC; OVCAR-3 ovarian; MOLT-4 leukemia; HCT-116 colon; HS 578T breast; OVCAR-4 ovarian; UO-31 renal; IGROV1 ovarian; LOX IMVI melanoma; DU-145 prostate; T-47D breast; HL-60(TB) leukemia; UACC-257 melanoma; OVCAR-8 ovarian; SNB-75 CNS.
Common to all, as to assay: NCI anticancer screen, dose series, 48 h

Our source for the TGI and GI50 values is PubChem BioAssay (NCI).

Each structure is given as a SMILES string.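 Each compound was tested at five concentrations against cells in 96-well plates for 48 hours. GI50 marks 50% less growth. Definition used: TGI = concentration required for complete inhibition of growth.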

Take `CSCCCNC(=O)c1csc(-c2csc(CCN)n2)n1`: the TGI in the test with OVCAR-5 ovarian, in the test with MALME-3M melanoma, in the test with HOP-62 NSCLC, with OVCAR-3 ovarian, in the test on MOLT-4 leukemia and in the test on HCT-116 colon was > 100 µM throughout. The TGI in the test on HS 578T breast, in the test on OVCAR-4 ovarian, with UO-31 renal, with IGROV1 ovarian, with LOX IMVI melanoma and with DU-145 prostate was > 100 µM in each case. In addition, the TGI in the test on T-47D breast, with HL-60(TB) leukemia, with UACC-257 melanoma and with OVCAR-8 ovarian was > 100 µM throughout.

In the case of `O=C1C[C@@H](Sc2ccccc2)C2(OCCO2)[C@H]2ON3CCC[C@@H]3[C@@H]12`, the TGI is 4.31 µM in the test on MALME-3M melanoma; 13.8 µM with HOP-62 NSCLC; 9.15 µM with OVCAR-3 ovarian; 8.7 µM with MOLT-4 leukemia; 2.99 µM with HCT-116 colon; 13.1 µM in the test on HS 578T breast. In addition, the TGI in the test with OVCAR-4 ovarian came to 19.6 µM; in the test on UO-31 renal, 4.12 µM; with IGROV1 ovarian, 4.87 µM; in the test with LOX IMVI melanoma it was 11.8 µM; with DU-145 prostate, 6.07 µM; in the test on T-47D breast, 8.75 µM. For the same compound, the TGI came out at 6.08 µM in the test on HL-60(TB) leukemia, 29.3 µM in the test on UACC-257 melanoma and 5.57 µM in the test on OVCAR-8 ovarian.

As to `O=C1c2ccccc2C(=O)c2c1ccc(C(=O)O)c2-c1ccc2ccccc2c1`, the TGI in the test with OVCAR-5 ovarian was 59.3 µM; in the test on MALME-3M melanoma, 70.7 µM; with HOP-62 NSCLC, > 100 µM; with OVCAR-3 ovarian it was 65.3 µM; with MOLT-4 leukemia, 53 µM; with HCT-116 colon, 47.7 µM. Also, the TGI was 80.7 µM with HS 578T breast; > 100 µM with OVCAR-4 ovarian; 83.3 µM with UO-31 renal; 68.3 µM with IGROV1 ovarian; 41.6 µM in the test on LOX IMVI melanoma; 46.6 µM in the test with DU-145 prostate. For the same compound, the TGI was 18.1 µM with T-47D breast, 61.2 µM in the test with HL-60(TB) leukemia, > 100 µM in the test on UACC-257 melanoma and > 100 µM with OVCAR-8 ovarian.

Take `CC(C)[Si](OC1=C(C(=O)N(C)c2ccccc2Cl)CCCC1)(C(C)C)C(C)C`: the TGI with OVCAR-5 ovarian came to 26.3 µM; in the test with SNB-75 CNS, 27.5 µM; in the test with MALME-3M melanoma, 26.4 µM; in the test on HOP-62 NSCLC, 34.6 µM; in the test with OVCAR-3 ovarian, 27.5 µM; in the test on MOLT-4 leukemia, 43 µM. The TGI in the test with HS 578T breast was 30.7 µM; in the test on OVCAR-4 ovarian, 28.9 µM; in the test on UO-31 renal it was 27.6 µM; in the test on IGROV1 ovarian, 31.4 µM; with LOX IMVI melanoma, 30 µM; in the test on DU-145 prostate, 22.5 µM. The TGI stood at 10.5 µM with T-47D breast, 24.1 µM with UACC-257 melanoma and 30.2 µM with OVCAR-8 ovarian.

Turning to `NCCCCN(CCCN)Cc1ccccc1`, the TGI in the test with OVCAR-5 ovarian, with SNB-75 CNS, in the test on HOP-62 NSCLC, in the test on OVCAR-3 ovarian, in the test with MOLT-4 leukemia and in the test on HCT-116 colon was > 100 µM throughout. Moreover, the TGI in the test with HS 578T breast, in the test on OVCAR-4 ovarian, in the test on UO-31 renal, in the test on IGROV1 ovarian, with DU-145 prostate and in the test with T-47D breast was > 100 µM throughout. For the same compound, the TGI with HL-60(TB) leukemia, in the test on UACC-257 melanoma and in the test on OVCAR-8 ovarian was > 100 µM throughout.

For `COc1ccc2c(c1)CCCN1Cc3cc(OC)c(OC)cc3CC21` (stereo unspecified), the TGI in the test on OVCAR-5 ovarian, in the test with SNB-75 CNS, in the test on MALME-3M melanoma, in the test with HOP-62 NSCLC, in the test with OVCAR-3 ovarian and with MOLT-4 leukemia was > 100 µM throughout. Moreover, the TGI in the test with HCT-116 colon, in the test with HS 578T breast, in the test on OVCAR-4 ovarian, in the test with UO-31 renal, with IGROV1 ovarian and in the test on LOX IMVI melanoma was > 100 µM each time. Further, the TGI in the test with DU-145 prostate, in the test on T-47D breast, with UACC-257 melanoma and in the test with OVCAR-8 ovarian was > 100 µM throughout.

In the case of `COc1ccc(OC)c(C#Cc2ccc(OC)c(C(=O)NCCc3ccc(F)cc3)c2)c1`, the TGI in the test with OVCAR-5 ovarian, in the test on HOP-62 NSCLC, in the test on MOLT-4 leukemia, with HCT-116 colon, in the test with HS 578T breast and with OVCAR-4 ovarian was > 100 µM throughout. Also, the TGI with UO-31 renal, with IGROV1 ovarian, in the test on LOX IMVI melanoma, in the test with DU-145 prostate, in the test with T-47D breast and in the test on HL-60(TB) leukemia was > 100 µM in each case. The TGI with UACC-257 melanoma and in the test on OVCAR-8 ovarian was > 100 µM throughout. Besides, the results for the GI50 with HOP-62 NSCLC, in the test on HCT-116 colon and in the test on DU-145 prostate were 4.94 µM, 4.7 µM and > 100 µM, respectively.

On to `O=C1c2cscc2C(=O)C1(O)O`, for which the TGI in the test with OVCAR-5 ovarian is > 100 µM; in the test on MALME-3M melanoma it was 54.8 µM; in the test on HOP-62 NSCLC it was > 100 µM; in the test on OVCAR-3 ovarian, 67.5 µM; in the test with MOLT-4 leukemia it was 57.8 µM; in the test with HCT-116 colon, 46.3 µM. Further, the TGI in the test on HS 578T breast is > 100 µM; with OVCAR-4 ovarian it was > 100 µM; in the test with UO-31 renal it was 49.1 µM; in the test on IGROV1 ovarian it was > 100 µM; in the test with LOX IMVI melanoma, > 100 µM; in the test with DU-145 prostate, > 100 µM. In addition, the TGI is 37.5 µM in the test on T-47D breast, 72.5 µM with HL-60(TB) leukemia, 65.1 µM in the test on UACC-257 melanoma and > 100 µM with OVCAR-8 ovarian.

Regarding `CCN1C(=O)c2ccccc2C1(O)c1ccc(Cl)cc1` (stereo unspecified), the TGI in the test on OVCAR-5 ovarian, with HOP-62 NSCLC, in the test with OVCAR-3 ovarian, in the test on MOLT-4 leukemia, with HCT-116 colon and in the test on HS 578T breast was > 100 µM throughout. Moreover, the TGI in the test on OVCAR-4 ovarian, in the test on UO-31 renal, in the test on IGROV1 ovarian, in the test with LOX IMVI melanoma, with DU-145 prostate and with T-47D breast was > 100 µM throughout. In addition, the TGI with HL-60(TB) leukemia, in the test with UACC-257 melanoma and with OVCAR-8 ovarian was > 100 µM throughout.
